Columns and labels:
[1] = system: NRF2/KEAP1 mutant NSCLC cell lines; assay: ROS after GLS inhibitors; assay type: cell-based
Procedure: One day prior to the experiment, A549 cells were seeded in 6 well dishes (250,000 cells per well). The day of the experiment, cells were treated with 0.01% DMSO or 1 μM IACS-011393 for 24 hours. The following day, an allocated well was treated with hydrogen peroxide for 20-30 minutes as a positive control for ROS generation. All wells were then stained with CM-H2DCFDA (5 μM, Life Technologies) for 30 minutes at 37° C., washed with 1× PBS, harvested by trypsinization, and re-suspended in 400 μl phenol-free RPMI medium. Cells were strained through a […] cell strainer and analyzed using a flow cytometer (LSR Fortessa).

[2] = system: NRF2/KEAP1 mutant NSCLC cell lines; assay: Glutathione level after GLS inhibitors; assay type: cell-based
Procedure: Cells were allowed to settle and attach overnight. Cells plated in triplicate for each concentration and control examined. […] Cells were incubated with compound or relevant controls for 24 hours. On Day 2, 24 hours after treatment, cells were analyzed by GSH-Glo (PromegaV6912) per manufacturer's instructions. Plates were read in luminescence mode on a PheraStarFS plate reader. Duplicate wells were plated and then stained with crystal violet in order to correct for differences in cell growth as described below.

`O=C(Cc1ccccc1)Nc1nnc(CCSCCc2nnc(NC(=O)Cc3ccccc3)s2)s1` [BPTES, N,N′-(5,5′-(2,2′-thiobis(ethane-2,1-diyl))bis(1,3,4-thiadiazole-5,2-diyl))bis(2-phenylacetamide)] was tested. Which ROS [1] did it give?
The ROS was “increase in ROS”.

What about the glutathione [2] of the same compound?
Its glutathione is “reduction in glutathione”.

Which ROS [1] does the source give for `O=C(Cc1ccccn1)Nc1nnc(CCS(=O)(=O)CCc2nnc(NC(=O)Cc3ccccn3)s2)s1` [compound 13, N,N′-(5,5′-(2,2′-sulfonylbis(ethane-2,1-diyl))bis(1,3,4-thiadiazole-5,2-diyl))bis(2-(pyridin-2-yl)acetamide)] here?
Its ROS is “increase in ROS”.

And the glutathione [2]?
Its glutathione is “reduction in glutathione”.

Which ROS [1] does the source give for `O=C(Cc1cccc(OC(F)(F)F)c1)Nc1ccc(CCCCc2nnc(NC(=O)Cc3ccccn3)s2)nn1` [CB-839, 2-(pyridin-2-yl)-N-{5-[4-(6-{2-[3-(trifluoromethoxy)phenyl]acetamido}pyridazin-3-yl)butyl]-1,3,4-thiadiazol-2-yl}acetamide] here?
Its ROS is “increase in ROS”.

And the glutathione [2]?
The glutathione was “reduction in glutathione”.
